Test results as given in patent US8815529B2, “Sulfotransferase assay” (Research & Diagnostics Systems, Inc., priority 2011, dated 2014).
Each block holds one molecule with its values, some of them ahead of it.

Assays:
[1] = biological target: T1, gPAPP (Mus musculus, UniProt Q80V26); test: Specificity of gPAPP on 3′-AMP, 5′-AMP, PAP and PAPS (phosphate release); format: biochemical; settings: for activity of gPAPP alone on the nucleotide: 1 μg gPAPP; for activity of gPAPP alone on the nucleotide / phosphate released by gPAPP versus amount of gPAPP: 10 mM Mg2+; for phosphate released by gPAPP versus amount of gPAPP: 50 nmol PAP or PAPS, pH 7.5, 20 minutes
T1 construct: N-terminal His-tagged recombinant protein containing amino acids from E51 to K356; His tag (N); host or cells: CHO cells
T1 sequence (Q80V26 51-356): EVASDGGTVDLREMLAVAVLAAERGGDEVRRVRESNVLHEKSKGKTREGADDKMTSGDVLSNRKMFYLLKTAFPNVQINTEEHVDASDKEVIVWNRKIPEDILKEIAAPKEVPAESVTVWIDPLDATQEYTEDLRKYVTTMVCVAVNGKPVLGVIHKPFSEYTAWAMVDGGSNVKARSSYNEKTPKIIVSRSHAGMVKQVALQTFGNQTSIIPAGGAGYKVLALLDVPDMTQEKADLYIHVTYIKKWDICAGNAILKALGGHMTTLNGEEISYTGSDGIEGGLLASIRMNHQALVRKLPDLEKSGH
Method: (§1) In the following examples, the gPAPP used was recombinant mouse gPAPP expressed in CHO cells as an N-terminal His-tagged recombinant protein containing amino acids from E51 to K356, created by R & D Systems. The sequence was based on accession number NP 808398 from the National Center for Biotechnology Information. The chondroitin sulfate (CS) and p-nitrophenol (pNP) were obtained from Sigma Aldrich. The PAPS was prepared by R & D Systems using recombinant S. cerevisiae ATP sulurylase and P. chrysogenum APS kinase. The APS kinase was also prepared by R & D Systems. Recombinant human SULT1A1, CHST3, CD73, TNAP and Malachite Green Phosphate Detection Kit were from R & D Systems. Protein concentrations were quantified using the Bradford assay as described by Bradford, M. M., A rapid and sensitive method for the quantitation of microgram quantities of protein utilizing the principle of protein-dye binding. Anal Biochem. 1976. Vol 72, Page 248-254, the relevant portions of which are hereby incorporated by reference. Phosphate levels were determined using the Malachite Green Phosphate Detection Kit available from R & D Systems, according to the package instructions. All examples were performed in a buffer of 25 mM Tris at pH 7.5.
The specificity of gPAPP was first tested on 3′-AMP, 5′-AMP and PAP in the absence or presence of CD73 by combining 10 nmol of either 3′-AMP, 5′-AMP or PAP with 1 μg gPAPP and/or 0.1 μg CD73 in 50 μL assay buffer containing 10 mM Mg^2 at pH 7.5. In a parallel experiment, the same amount of nucleotide was combined with tissue-non-specific alkaline phosphatase (TNAP) at pH 9.0. The ratio between the phosphate released by gPAPP and/or CD73 (Pi) and the phosphate released by TNAP (PiTNAP) was plotted versus the nucleotide and phosphatases in FIG. 5. […] When gPAPP and CD73 were used together, they released twice as much phosphate from PAP than gPAPP alone.
The specificity of gPAPP was tested on PAP and PAPS. In this example, 50 nmol of either PAP or PAPS was treated with different amounts of gPAPP in 50 μL assay buffer containing 10 mM Mg^2 at pH 7.5 for 20 minutes. The released phosphate was plotted versus the amount of gPAPP.

[2] = test system: sulfotransferases; settings: reported; cited from earlier work
[3] = biological target: T1, gPAPP; test: Inhibition of gPAPP hydrolysis of PAP by PAPS; format: biochemical; settings: 0.5 mM PAPS, amount of PAP greater than the coupling capacity
Method: as §1, with “Vol 72, Page 248-254, the relevant portions of which are hereby incorporated by reference.” left out, “All examples were performed in a buffer of 25 mM Tris at pH 7.5.” left out
In this example, the coupling capacity of gPAPP was determined. […] The coupling capacity of gPAPP was determined by combining 1 μg gPAPP with increasing amounts of PAP, in the presence or absence of 0.5 mM PAPS in 50 μL assay buffer containing 10 mM Mg^2+ at pH 7.5 for either 20 or 40 minutes. […]

[4] = biological target: T2, CHST3 (Homo sapiens, UniProt Q7LGC8); test: CHST3 substrate curves for CS and PAPS, gPAPP-coupled assay; format: biochemical
T2 construct: purchased R & D Systems
T2 sequence (Q7LGC8 1-479): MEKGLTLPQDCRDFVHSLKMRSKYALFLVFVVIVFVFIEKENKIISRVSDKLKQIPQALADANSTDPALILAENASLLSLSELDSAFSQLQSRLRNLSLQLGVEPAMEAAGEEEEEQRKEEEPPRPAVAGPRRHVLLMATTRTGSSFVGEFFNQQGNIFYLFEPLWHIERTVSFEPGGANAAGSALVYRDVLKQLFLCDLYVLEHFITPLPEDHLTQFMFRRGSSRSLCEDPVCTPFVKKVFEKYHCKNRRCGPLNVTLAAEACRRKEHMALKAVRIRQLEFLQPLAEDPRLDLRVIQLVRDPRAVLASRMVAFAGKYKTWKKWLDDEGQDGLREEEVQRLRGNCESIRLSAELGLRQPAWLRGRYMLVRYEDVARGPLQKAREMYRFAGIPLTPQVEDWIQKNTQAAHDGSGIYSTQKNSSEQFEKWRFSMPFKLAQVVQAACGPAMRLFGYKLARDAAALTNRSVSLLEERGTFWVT
Method: as §1
Carbohydrate sulfotransferase 3 (CHST3) is a sulfotransferase which is known to catalyze the sulfation of N-acetylgalactosamine at the 6-O position. In a first series of reactions, 1 μg CHST3 was combined with 1 μg gPAPP and increasing concentrations of CS in 50 μl assay buffer containing 0.8 mM PAPS, 10 mM MgCl2 at pH 7.5. In a second series of reactions, 0.4 μg CHST3 was combined with 1 μg gPAPP and increasing concentrations of PAPS in 50 μL assay buffer containing […], 10 mg/ml CS, 10 mM MgCl2 at pH 7.5.
An enzyme dose curve was then created for CHST3 at the optimal concentrations for both the donor and acceptor substrates in FIG. 11. To create the dose curve, 1 μg gPAPP was combined with increasing amounts of CHST3 in the presence of 10 mg/ml of CS and 0.5 mM of PAPS in 50 μl assay buffer containing 10 mM MgCl2 at pH 7.5.

[5] = biological target: T3, SULT1A1 (Homo sapiens, UniProt P50225); settings: read-out: half maximal velocity (Km); reported; cited from earlier work
[6] = biological target: T3, SULT1A1; test: SULT1A1 velocity versus pNP concentration, gPAPP/CD73-coupled assay; format: biochemical; parameters: purchased R & D Systems; settings: 0.1 μg SULT1A1, 0.25 mM PAPS, gPAPP and CD73
Method: as §1, with “Anal Biochem. 1976. Vol 72, Page 248-254, the relevant portions of which are hereby incorporated by reference.” left out, “All examples were performed in a buffer of 25 mM Tris at pH 7.5.” left out
A series of reactions were performed by combining increasing concentrations of pNP with 0.1 μg SULT1A1, 2 μg PAPP and 0.1 μg CD73 in 200 μL of an assay buffer containing 0.25 mM PAPS, 10 mM MgCl2 at pH 7.5. […] These values are consistent with reported values for SULT1A1 determined using radioisotope assays in the literature.

T3 sequence (P50225 whole entry): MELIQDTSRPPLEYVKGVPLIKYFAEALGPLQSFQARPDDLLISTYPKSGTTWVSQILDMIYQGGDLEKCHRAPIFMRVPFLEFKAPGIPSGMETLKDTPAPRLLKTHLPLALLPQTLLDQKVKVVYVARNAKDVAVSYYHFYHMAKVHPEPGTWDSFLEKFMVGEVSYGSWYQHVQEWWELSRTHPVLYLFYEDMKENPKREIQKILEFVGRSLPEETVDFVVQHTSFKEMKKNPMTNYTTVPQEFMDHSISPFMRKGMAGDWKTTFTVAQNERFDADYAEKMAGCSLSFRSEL

Molecule: Nc1ncnc2c1ncn2[C@@H]1O[C@H](CO)[C@@H](OP(=O)(O)O)[C@H]1O [3′-AMP]
activity of gPAPP alone on the nucleotide ([1]; 10 nmol nucleotide, pH 7.5): not

Molecule: Nc1ncnc2c1ncn2[C@@H]1O[C@H](COP(=O)(O)O)[C@@H](O)[C@H]1O [5′-AMP, 5-adenosine monophosphate]
activity of gPAPP alone on the nucleotide ([1]; 10 nmol nucleotide, pH 7.5): not

Molecule: O=[N+]([O-])c1ccc(O)cc1 [pNP, p-nitrophenol]
Km [5]: < 1 µM | concentration above which substrate inhibition was present [6]: above 4 mM | concentration for half maximum velocity ([6]; projected): < 1.0 µM

Second part, led by results:

phosphate released by gPAPP and CD73 together compared with gPAPP alone ([1]; 10 nmol nucleotide, 1 μg gPAPP and 0.1 μg CD73, 10 mM Mg2+, pH 7.5): twice as much | activity of gPAPP alone on the nucleotide ([1]; 10 nmol nucleotide, pH 7.5): showed activity | phosphate released by gPAPP versus amount of gPAPP [1]: increased with the amount of the enzyme
Molecule: Nc1ncnc2c1ncn2[C@@H]1O[C@H](COP(=O)(O)O)[C@@H](OP(=O)(O)O)[C@H]1O [PAP, 3′-phosphoadenosine-5′-phosphate]
inhibition of sulfotransferases [2]: potent inhibitor

phosphate released by gPAPP versus amount of gPAPP [1]: showed no change | inhibition of the hydrolysis of PAP [3]: ~20% | level above which substrate inhibition occurred ([4]; 0.4 μg CHST3, 10 mg/ml CS): above 0.5 mM | Km ([4]; 0.4 μg CHST3, 10 mg/ml CS, read-out: concentration for half-maximal velocity (Km for PAPS)): < 100 µM | optimal concentration (visually determined) ([4]; highest point of the curve of FIG. 10B): about 0.5 mM
Molecule: Nc1ncnc2c1ncn2[C@@H]1O[C@H](COP(=O)(O)OS(=O)(=O)O)[C@@H](OP(=O)(O)O)[C@H]1O [PAPS, 3′-phosphoadenosine-5′-phosphosulfate]

concentration for half-maximal velocity (Km for CS) ([4]; 1 μg CHST3, 0.8 mM PAPS): about 2 mg/ml | substrate inhibition ([4]; 1 μg CHST3, 0.8 mM PAPS): no substrate inhibition | optimal concentration (visually determined) ([4]; highest point of the curve of FIG. 10A): > 5 mg/mL
Molecule: chondroitin sulfate [CS]
